{"source": "patent US20170285002A1", "about": "“METHOD FOR RECONSTITUTING TUMOR WITH MICROENVIRONMENT” (Public University Corporation Yokohama City University, priority 2016, published 2017)", "key": {"[1]": {"system": "luciferase gene-transfected human pancreatic cancer cell line", "assay": "In vitro drug sensitivity of pancreatic cancer organoid versus plane-cultured cells (luciferase activity)", "format": "cell-based", "experimental": "In each graph, the ordinate depicts the amount of luciferase activity of the pancreatic cancer cells, and the abscissa depicts an anti-cancer drug (gemcitabine, nab-paclitaxel, or 5-FU) concentration in a medium. […] Among the pancreatic cancer organoids, cancer organoids with rich-stroma show lower sensitivity to anticancer drugs.\n(§1) Each pre-existing human pancreatic cancer cell line was inoculated at 5×10^3 cells/well on a 96-well plate, and gemcitabine (10^−12 to 10^−3 M) was added thereto 24 hours later. Nuclear staining was performed 72 hours after the gemcitabine addition. A cell number was measured using IN Cell Analyzer 2000, and an IC50 value was calculated. In order to specifically detect cancer cells within an organoid and calculate a cancer cell number, luciferase gene-transfected cancer cells were established and used in analysis. A cancer organoid was formed from the luciferase gene-transfected cancer cells, and luminescence was measured in the presence of a luminescent substrate (e.g., Luciferase Assay System from Promega Corp.) to evaluate the number of cancer cells present.\nOn the other hand, for the large-scale preparation of pancreatic cancer cell organoids having a uniform size, human pancreatic cancer cells, HUVECs, and hMSCs were cocultured using a three-dimensional culture vessel (e.g., ELPLASIA plate from Kuraray Co., Ltd.) to reconstitute a human pancreatic cancer cell line organoid. The pancreatic cancer cells of each line were inoculated at 1×10^4 cells on each well of a 96-well plate which was also inoculated with arbitrary numbers of HUVECs and hMSCs to reconstitute a cancer organoid. The mixing ratio of the cancer cells, HUVECs, and hMSCs was set to 10:0:0, 10:7:1, 10:7:20, 10:7:0, or 10:0:20.\nIn order to evaluate the drug sensitivity of cancer cells with high accuracy, an approach for quantitatively evaluating only the number of cancer cells within a cancer organoid was studied (FIG. 14). Luciferase gene-transfected cancer cells (CFPAC-1, PANC-1, or CAPAN-2; typically, CFPAC-1) were established, and a cancer organoid was reconstituted. Then, a luminescent substrate was added thereto, and the luminescence intensity of each well was measured using a luminescence plate reader. The luciferase gene-transfected cancer cells were inoculated at various cell numbers onto a multi-well plate, followed by luciferase assay. As a result, the luminescence intensity was confirmed to be proportional to the cell number (FIG. 15). […]\nA pancreatic cancer organoid was reconstituted from luciferase gene-transfected pancreatic cancer cells and stromal cells and evaluated for its sensitivity for a pancreatic cancer therapeutic (anti-cancer drug) (FIG. 17). […]"}, "[2]": {"system": "primary human pancreatic cancer cells", "assay": "In vitro gemcitabine sensitivity of primary human pancreatic cancer organoid (luciferase)", "format": "cell-based", "settings": "primary pancreatic cancer organoid versus pancreatic cancer cyst; 72 hours", "protocol": "Pancreatic cancer cells transfected with luciferase gene were used for experiments. […] The three-dimensional coculture method abides by the method for a pancreatic cancer organoid from a pancreatic cancer cell line. […] Luciferase gene-transfected primary human pancreatic cancer cells were established, and a primary pancreatic cancer organoid (pancreatic cancer cells: 2×10^4 cells) was reconstituted in vitro and then cultured for 72 hours in the presence of gemcitabine. Then, a luminescent substrate was added thereto, and the luminescence intensity of each organoid was measured using a luminescence plate reader and analyzed."}, "[3]": {"system": "primary pancreatic cancer organoid", "assay": "Drug sensitivity of primary human pancreatic cancer organoid versus patient prognosis (luciferase activity)", "format": "cell-based", "settings": "organoid from patient having postoperative recurrence; 72 hours", "experimental": "Pancreatic cancer cells were separated from a surgically resected preparation of each pancreatic cancer patient and expanded culture was performed by the cyst culture method to obtain primary human pancreatic cancer cells. […] The obtained primary human pancreatic cancer cells were three-dimensionally cocultured with stromal cells (vascular endothelial cells (HUVECs, etc.) and mesenchymal cells (hMSCs, etc.)) to reconstitute a primary pancreatic cancer organoid. Its drug sensitivity was evaluated. The mixing ratio of these cells at the time of primary pancreatic cancer organoid preparation was 10:7:20. The number of specimens was 2. Primary pancreatic cancer cells were separated from a surgically resected specimen of each pancreatic cancer patient (with or without postoperative recurrence), subjected to expanded culture, and then transfected with luciferase gene. Then, these cancer cells were three-dimensionally cocultured with stromal cells to reconstitute a primary pancreatic cancer organoid. The reconstituted human pancreatic cancer organoid was cultured for 72 hours in the presence of gemcitabine at respective concentrations, followed by luciferase activity measurement."}, "[4]": {"system": "EGFP gene-transfected cancer cells (typically, CFPAC-1) organoid", "assay": "Residual cells in cancer organoid cultured with anti-cancer drug", "format": "cell-based, human", "settings": "1 uM, 72 hours", "experimental": "Residual cancer cells expressing GFP and mesenchymal cells expressing αSMA are observed even after anti-cancer drug (gemcitabine) administration. Increase in positive ratio of a cancer stem cell marker Sox9 was confirmed in the residual cancer cells. The properties of cancer cells remaining after anti-cancer drug addition and stromal cells within a cancer organoid were evaluated. EGFP gene-transfected cancer cells (typically, CFPAC-1) were established, and a cancer organoid was reconstituted (the cancer cell:HUVEC:hMSC ratio is, for example, 10:7:10 to 10:7:20). Then, the cancer organoid was cultured for 72 hours in a medium containing 1 uM gemcitabine."}, "[5]": {"system": "human lung cancer cell line (A549 cells)", "assay": "In vitro drug sensitivity of human lung cancer cell line organoid (luciferase activity)", "format": "cell-based", "experimental": "FIG. 29 A lung cancer organoid prepared three-dimensionally using a human lung cancer cell line (A549 cells) expressing luciferase gene and EGFP, as well as HUVECs and hMSCs, and a three-dimensional aggregate composed of only pancreatic cancer cells were evaluated for their in vitro drug sensitivity. The left diagrams show a fluorescence phase-contrast microscope image of the lung cancer organoid. In the graph of the right diagram, the ordinate depicts the amount of luciferase activity of the lung cancer cells, and the abscissa depicts an anti-cancer drug (gemcitabine) concentration in the medium. […] A pre-existing human lung cancer cell line (A549) was introduced from ATCC. In the present study, this cell line was introduced and then used at a passage number of 10 or less in experiments. The pre-existing human lung cancer cell line was transfected with luciferase gene in advance. The human lung cancer cell line, HUVECs, and hMSCs were inoculated onto a three-dimensional culture vessel ([…] plate from Kuraray Co., Ltd.) to reconstitute a human lung cancer cell line organoid. The human lung cancer cell line was inoculated at 3×10^3 cells on each well of a 96-well plate which was also inoculated with arbitrary numbers of HUVECs and hMSCs to reconstitute a cancer organoid. The mixing ratio of the cancer cells, HUVECs, and hMSCs was set to 10:0:0, 10:7:1 (Low hMSC), or 10:7:20 (High hMSC). A lung cancer organoid prepared three-dimensionally using a luciferase gene and EGFP expressing human lung cancer cell line (A549 cells), HUVECs, and hMSCs, and a three-dimensional aggregate composed of only pancreatic cancer cells were evaluated for their in vitro drug sensitivity. The left diagrams show a fluorescence phase-contrast microscope image of the lung cancer organoid. In the graph of the right diagram, the ordinate depicts the amount of luciferase activity of the lung cancer cells, and the abscissa depicts an anti-cancer drug (gemcitabine) concentration in a medium."}, "[6]": {"system": "primary pancreatic cancer organoid xenograft", "assay": "In vivo drug sensitivity of primary human pancreatic cancer organoid xenograft (tumor size)", "set-up": "species or system immunodeficient mice", "settings": "primary organoid transplantation group versus cyst transplantation group; once every three days", "experimental": "FIG. 28 A primary cancer organoid was prepared from a primary cancer cell line, and a xenograft was reconstituted in immunodeficient mice in vivo. […] A primary pancreatic cancer organoid (pancreatic cancer cells: 2×10^5 cells) was reconstituted in vitro and then transplanted to immunodeficient mice. […] Gemcitabine was administered thereto once every three days from the point in time when a xenograft reached 100 mm^3."}, "PANC-1 xenograft": {"system": "PANC-1 xenograft", "assay": "In vivo drug sensitivity of subcutaneous cell line xenograft", "set-up": "species or system NOD/Scid mice", "settings": "100 mg/kg intraperitoneal", "experimental": "(§2) 8000 cells of human pancreatic cancer cell line were seeded in each well of a 96-well plate, and gemcitabine was added at 24 hours. At 72 hours, the number of viable cells was measured and summarized in a graph. The pancreatic cancer cells of each line were subcutaneously transplanted to NOD/Scid mice. Gemcitabine was intraperitoneally administered at 100 mg/kg from the point in time when the tumor volume reached 100 mm^3. Change in tumor size after the gemcitabine administration was evaluated.\n(§3) Each pre-existing human pancreatic cancer cell line was subcutaneously transplanted at 1×10^6 cells to each of 4- to 10-week old female immunodeficient mice (NOD/Scid mice) to prepare a xenograft. The number of xenografts formed and the volume of each xenograft were measured over time. The volume was calculated according to (minor axis×minor axis×major axis/2) mm^3. The intraperitoneal administration of gemcitabine was started from the point in time when the volume of the xenograft formed exceeded 100 mm^3. The dose concentration of gemcitabine was set to 100 mg/kg, 0 mg/kg, 5 mg/kg, or 10 mg/kg, and gemcitabine was administered once every three days for 3 weeks. Then, the xenograft was resected.\n(§4) The in vitro drug sensitivity of a pre-existing human pancreatic cancer cell line CFPAC-1, PANC-1, or SW1990 was evaluated. 10^−12 to 10^−3M GEM was added to the cells cultured for 24 hours, and IC50 was calculated from the number of cells surviving 72 hours after the addition."}, "SW1990 xenograft": {"system": "SW1990 xenograft", "assay": "In vivo drug sensitivity of subcutaneous cell line xenograft", "set-up": "species or system NOD/Scid mice", "settings": "100 mg/kg intraperitoneal", "experimental": "as §2, §3, §4"}, "CFPAC-1 xenograft": {"system": "CFPAC-1 xenograft", "assay": "In vivo drug sensitivity of subcutaneous cell line xenograft", "set-up": "species or system NOD/Scid mice", "settings": "100 mg/kg intraperitoneal", "experimental": "as §2, §3, §4"}, "[7]": {"system": "pancreatic cancer organoid-derived xenograft", "assay": "Immunostaining of residual xenograft tissue after gemcitabine administration", "format": "in vivo, immunodeficient mice", "protocol": "A paraffin section was deparaffinized, then dipped in a citrate buffer, and activated at 121° C. for 20 minutes. After washing with PBS containing 0.05% Tween 20 (PBST) for 5 minutes three times, a buffer for blocking (Dako Japan Co., Ltd.) was added to the section, and blocking reaction was performed at room temperature for 1 hour. Next, a primary antibody solution was added thereto and reacted overnight at 4° C. After the primary antibody (anti-EpCAM antibody, anti-αSMA antibody, anti-cytokeratin 7 (CK7) antibody, anti-CD31 antibody, or anti-laminin antibody) reaction, the section was washed with PBST for 5 minutes three times. A secondary antibody solution diluted with a buffer solution was added thereto and reacted at room temperature for 1 hour in the dark. After the secondary antibody reaction, the section was washed with PBST for 5 minutes three times and mounted on a glass slide using a mounting agent containing a DAPI staining solution (Wako Pure Chemical Industries, Ltd.). A pre-existing human pancreatic cancer cell line was transplanted at 2×10^5 cells to immunodeficient mice. After a xenograft reached 100 mm^3, gemcitabine was administered thereto once every three days. […] A pancreatic cancer cell line was transplanted to immunodeficient mice. Then, gemcitabine administration was started from the point in time when a xenograft reached 100 mm^3. […]"}, "[8]": {"system": "pre-existing human pancreatic cancer cell line (CFPAC-1) organoid-derived xenograft", "assay": "Drug sensitivity of human pancreatic cancer organoid-derived xenograft (tumor volume)", "format": "in vivo, NOD/Scid mice", "settings": "for xenograft regression: e.g. 10 mg/kg", "protocol": "After transplantation of the human pancreatic cancer cells or the human pancreatic cancer cell organoid to immunodeficient mice (NOD/Scid), gemcitabine was administered thereto at 3-day intervals from the point in time when the tumor size exceeded 100 mm3. […] A xenograft was prepared by the subcutaneous transplantation of a human pancreatic cancer cell organoid. Then, the intraperitoneal administration of gemcitabine was started from the point in time when the volume of the xenograft exceeded 100 mm^3. The dose concentration of gemcitabine was set to 0 mg/kg, 5 mg/kg, or 10 mg/kg, and the administration frequency and period were set to once every three days for 3 weeks. The volume of the xenograft was measured at appropriate times. […] The in vivo drug sensitivity of a xenograft reconstituted after transplantation of each organoid was evaluated using a typical pancreatic cancer therapeutic Gemzar (gemcitabine: GEM). A pre-existing human pancreatic cancer cell line organoid prepared by the three-dimensional coculture of a pre-existing human pancreatic cancer cell line, HUVECs, and hMSCs was subcutaneously transplanted to NOD/Scid mice. Then, the administration of GEM (e.g., 10 mg/kg) was started from the point in time when the tumor volume exceeded 100 mm^3. A non-GEM-administration group (0 mg/kg) given only physiological saline was set as a control group. GEM was administered once every three days for 30 days with reference made to a treatment regimen for human pancreatic cancer. A xenograft was recovered at GEM administration day 30 and analyzed histologically."}, "CFPAC-1": {"system": "CFPAC-1", "assay": "In vitro drug sensitivity of pre-existing human pancreatic cancer cell line (surviving cell number, IC50)", "format": "cell-based", "settings": "cells surviving 72 hours after addition", "experimental": "as §2, with “evaluated. The discrepancy between the in vitro anti-cancer drug sensitivity and the in vivo anti-cancer drug sensitivity was confirmed.” for “evaluated.”\nas §1\n(§5) The in vitro drug sensitivity of a pre-existing human pancreatic cancer cell line CFPAC-1, PANC-1, or SW1990 was evaluated. 10^−12 to 10^−3M GEM was added to the cells cultured for 24 hours, and IC50 was calculated from the number of cells surviving 72 hours after the addition. As a result, IC50 of CFPAC-1, PANC-1, or SW1990 was 0.03 μM, 0.7 μM, or 0.2 μM, respectively (upper panels of FIG. 1). On the other hand, the cancer cells were subcutaneously transplanted to NOD/Scid mice, and the xenograft formed was evaluated for its in vivo drug sensitivity by the administration of GEM at 100 mg/kg."}, "PANC-1": {"system": "PANC-1", "assay": "In vitro drug sensitivity of pre-existing human pancreatic cancer cell line (surviving cell number, IC50)", "format": "cell-based", "settings": "cells surviving 72 hours after addition", "experimental": "as §2, with “evaluated. The discrepancy between the in vitro anti-cancer drug sensitivity and the in vivo anti-cancer drug sensitivity was confirmed.” for “evaluated.”\nas §1, §5"}, "SW1990": {"system": "SW1990", "assay": "In vitro drug sensitivity of pre-existing human pancreatic cancer cell line (surviving cell number, IC50)", "format": "cell-based", "settings": "cells surviving 72 hours after addition", "experimental": "as §2, with “evaluated. The discrepancy between the in vitro anti-cancer drug sensitivity and the in vivo anti-cancer drug sensitivity was confirmed.” for “evaluated.”\nas §1, §5"}, "[9]": {"system": "CFPAC-1-derived cancer organoid xenograft", "assay": "Tumor size after discontinuation of gemcitabine administration (recurrence)", "format": "in vivo", "settings": "30 mg/kg for 30 days", "experimental": "Whether a xenograft reconstituted from a cancer organoid could reproduce the recurrence of pancreatic cancer was studied. […] The right diagrams show a macro photograph of the xenograft in each period. […] After cancer organoid (CFPAC-1-derived) transplantation, gemcitabine was administered (30 mg/kg) for 30 days. Then, the gemcitabine administration was discontinued."}, "[10]": {"settings": "pancreatic cancer organoid (with HUVECs and hMSCs)"}, "[11]": {"settings": "two-dimensionally cultured pancreatic cancer cells"}}, "data": [{"smiles": "O=c1[nH]cc(F)c(=O)[nH]1", "note": "[5-FU]", "values": [{"measurement": "drug sensitivity (luciferase activity)", "setting": "[1]; [10]", "result": "lower drug sensitivity"}, {"measurement": "drug sensitivity (luciferase activity)", "setting": "[1]; [11]", "result": "high sensitivity"}]}, {"smiles": "Nc1ccn([C@@H]2O[C@H](CO)[C@@H](O)C2(F)F)c(=O)n1", "note": "[gemcitabine]", "values": [{"measurement": "drug sensitivity (luciferase activity)", "setting": "[1]; [10]", "result": "lower drug sensitivity"}, {"measurement": "drug sensitivity (luciferase activity)", "setting": "[1]; [11]", "result": "high sensitivity"}, {"measurement": "drug resistance (luminescence intensity)", "setting": "[2]", "result": "significantly high drug resistance"}, {"measurement": "drug sensitivity (luciferase activity)", "setting": "[3]", "result": "resistance"}, {"measurement": "residual cancer stem cells in organoid", "setting": "[4]", "result": "GFP-positive and Sox9-positive cancer stem cells are confirmed to remain"}, {"measurement": "drug sensitivity (luciferase activity)", "setting": "[5]; High stroma group (hMSCs and HUVECs with high incidence)", "result": "even lower sensitivity"}, {"measurement": "drug sensitivity (luciferase activity)", "setting": "[5]; lung cancer cell aggregate", "result": "high sensitivity"}, {"measurement": "drug sensitivity (luciferase activity)", "setting": "[5]; organoid culture groups", "result": "lower drug sensitivity"}, {"measurement": "drug resistance (tumor size)", "setting": "[6]", "result": "significantly high drug resistance"}, {"measurement": "tumor regression", "setting": "PANC-1 xenograft", "result": "tumor regression was found"}, {"measurement": "tumor regression", "setting": "SW1990 xenograft", "result": "no tumor regression was found"}, {"measurement": "tumor regression", "setting": "CFPAC-1 xenograft", "result": "tumor regression was found"}, {"measurement": "ABCG2-expressing pancreatic cancer cells after administration", "setting": "[7]; cancer organoid transplantation group, administration day 30", "result": "Pancreatic cancer cells expressing ABCG2 are confirmed to remain"}, {"measurement": "Ki67-positive cells after administration", "setting": "[7]; organoid-derived xenograft, 1 month after start of administration once every three days", "result": "high incidence of Ki67-positive cells"}, {"measurement": "increase in xenograft volume", "setting": "[8]; all transplantation groups, e.g. 10 mg/kg once every three days for 30 days, versus non-GEM group", "result": "suppressed"}, {"measurement": "xenograft regression", "setting": "[8]; organoid with hMSCs in a large number (High hMSC)", "result": "exhibited no regression and increased in volume"}, {"measurement": "xenograft regression", "setting": "[8]; organoids of the other groups", "result": "exhibited regression"}, {"measurement": "IC50", "setting": "CFPAC-1", "result": 30, "unit": "nM"}, {"measurement": "IC50", "setting": "PANC-1", "result": 700, "unit": "nM"}, {"measurement": "IC50", "setting": "SW1990", "result": 200, "unit": "nM"}, {"measurement": "tumor size after discontinuation of administration", "setting": "[9]; pancreatic cancer organoid transplantation group", "result": "increased markedly"}, {"measurement": "tumor size after discontinuation of administration", "setting": "[9]; suspension transplantation group", "result": "constant tumor size"}]}]}
